Reference: the NIST ThermoML archive (doi:10.1016/j.jct.2019.03.007)

Assay: molar heat capacity at constant pressure
Conditions: 101.33 kPa, Crystal 1, DSC

O=[N+]([O-])[O-].O=[N+]([O-])[O-].[Ca+2] [calcium nitrate]
Conditions	molar heat capacity at constant pressure [J/K/mol]
460.78 K	169.24
461 K	167.84
461.78 K	169.39
462 K	167.76
462.78 K	169.54
463 K	167.86
463.78 K	169.69
464 K	168.02
464.78 K	169.84
465 K	168.08
465.78 K	169.99
466 K	168.25
466.78 K	170.14
467 K	168.45
467.78 K	170.28
468 K	168.56
468.78 K	170.43
469 K	168.64
469.78 K	170.57
470 K	168.78
470.78 K	170.71
471 K	169.08
471.78 K	170.84
472 K	169
472.78 K	170.98
473 K	169.04
473.78 K	171.11
474 K	169.16
474.78 K	171.24
475 K	169.1
475.78 K	171.37
476 K	169.34
476.78 K	171.5
477 K	169.7
477.78 K	171.63
478 K	169.85
478.78 K	171.76
479 K	169.98
479.78 K	171.88
480 K	170.3
480.78 K	172.01
481 K	170.38
481.78 K	172.14
482 K	170.53
482.78 K	172.27
483 K	170.78
483.78 K	172.4
484 K	171.03
484.78 K	172.53
485 K	171.06
485.78 K	172.66
486 K	171.2
486.78 K	172.79
487 K	171.33
487.78 K	172.92
488 K	171.57
488.78 K	173.05
489 K	171.63
489.78 K	173.19
490 K	171.74
490.78 K	173.32
491 K	171.84
491.78 K	173.45
492 K	172.06
492.78 K	173.58
493 K	172.18
493.78 K	173.7
494 K	172.32
494.78 K	173.83
495 K	172.25
495.78 K	173.96
496 K	172.55
496.78 K	174.08
497 K	172.8
497.78 K	174.21
498 K	172.81
498.78 K	174.34
499 K	172.68
499.78 K	174.47
500 K	172.79
500.78 K	174.6
501 K	172.74
501.78 K	174.72
502 K	172.79
502.78 K	174.85
503 K	172.93
503.78 K	174.98
504 K	173.02
504.78 K	175.1
505 K	173.14
505.78 K	175.23
506 K	173.3
506.78 K	175.35
507 K	173.5
507.78 K	175.47
508 K	173.86
508.78 K	175.6
509 K	173.88
509.78 K	175.72
510 K	173.92
510.78 K	175.84
511 K	174.13
511.78 K	175.96
512 K	174.3
512.78 K	176.08
513 K	174.4
513.78 K	176.2
514 K	174.42
514.78 K	176.32
515 K	174.62
515.78 K	176.44
516 K	174.84
516.78 K	176.57
517 K	175.25
517.78 K	176.69
518 K	175.28
518.78 K	176.81
519 K	175.29
519.78 K	176.93
520 K	175.21
520.78 K	177.05
521 K	175.26
521.78 K	177.17
522 K	175.43
522.78 K	177.29
523 K	175.67
523.78 K	177.42
524 K	175.75
524.78 K	177.54
525 K	175.8
525.78 K	177.66
526 K	175.94
526.78 K	177.78
527 K	175.82
527.78 K	177.91
528 K	176.06
528.78 K	178.03
529 K	176.19
529.78 K	178.15
530 K	176.36
530.78 K	178.27
531 K	176.31
531.78 K	178.39
532 K	176.49
532.78 K	178.51
533 K	176.66
533.78 K	178.64
534 K	176.93
534.78 K	178.76
535 K	177.11
535.78 K	178.88
536 K	177.34
536.78 K	179
537 K	177.34
537.78 K	179.12
538 K	177.42
538.78 K	179.24
539 K	177.46
539.78 K	179.36
540 K	177.51
540.78 K	179.48
541 K	177.41
541.78 K	179.6
542 K	177.7
542.78 K	179.71
543 K	177.98
543.78 K	179.83
544 K	178.12
544.78 K	179.95
545 K	178.25
545.78 K	180.07
546 K	178.24
546.78 K	180.18
547 K	178.5
547.78 K	180.3
548 K	178.69
548.78 K	180.41
549 K	178.65
549.78 K	180.52
550 K	178.93
550.78 K	180.64
551 K	179.14
551.78 K	180.75
552 K	179.27
552.78 K	180.86
553 K	179.3
553.78 K	180.97
554 K	179.36
554.78 K	181.08
555 K	179.38
555.78 K	181.19
556 K	179.42
556.78 K	181.3
557 K	179.62
557.78 K	181.42
558 K	179.86
558.78 K	181.53
559 K	179.79
559.78 K	181.64
560 K	180.01
560.78 K	181.75
561 K	180.29
561.78 K	181.86
562 K	180.36
562.78 K	181.98
563 K	180.34
563.78 K	182.09
564 K	180.52
564.78 K	182.2
565 K	180.58
565.78 K	182.32
566 K	180.69
566.78 K	182.43
567 K	180.68
567.78 K	182.55
568 K	180.69
568.78 K	182.66
569 K	180.72
569.78 K	182.78
570 K	180.95
570.78 K	182.89
571 K	181.01
571.78 K	183
572 K	181.17
572.78 K	183.12
573 K	181.26
573.78 K	183.23
574 K	181.32
574.78 K	183.35
575 K	181.37
575.78 K	183.47
576 K	181.6
576.78 K	183.59
577 K	181.65
577.78 K	183.7
578 K	181.77
578.78 K	183.82
579 K	181.78
579.78 K	183.94
580 K	181.89
580.78 K	184.05
581 K	181.94
581.78 K	184.16
582 K	182.11
582.78 K	184.27
583 K	182.13
583.78 K	184.38
584 K	182.17
584.78 K	184.49
585 K	182.35
585.78 K	184.59
586 K	182.41
586.78 K	184.69
587 K	182.46
587.78 K	184.79
588 K	182.63
